A short description of data set [1]: (§1) Displacement of [3H]DALKD from bradykinin receptor in rat brain membrane at pH 6.8 by competition assay. It is filed as cell membranes. Background: Loss of bound radioactivity is the signal in a displacement assay; it reports binding, not function.
Data set [2] is described as follows: Retention time of the compound by HPLC analysis. It is filed as physicochemical.
Data set [3] can be described thus: Displacement of [3H]DALKD from bradykinin receptor in rat brain membrane at pH 7.4 by competition assay. It is filed as cell membranes.
For another data set, the species on record is Rattus norvegicus. The data set is described as §1. It is filed as cell membranes.

The source made the active and inactive calls. No cut-off for these calls is given here. Non-standard residues stand in square brackets, D forms with d. Residues, ends and D or L forms follow the SMILES beside them. ξ: configuration not given here. Phe(4-NH2) = Nc1ccc(C[C@H](N)C(=O)O)cc1; dNle = CCCC[C@@H](N)C(=O)O; ξNle = CCCCC(N)C(=O)O

For orientation: pIC50 means −log10 of the IC50, conventionally taken in molar units. Usually IC50 stands for the concentration needed to halve the response being measured.

In data set [1], `CC(C)C[C@H](NC(=O)[C@H](CCCCN)NC(=O)[C@@H]1CCCN1C(=O)[C@@H](N)CCCNC(=N)N)C(=O)N[C@@H](CCCCN)C(=O)O` had a pIC50 of 7.24. In data set [1] (read-out: IC50), the IC50 stood at 58 nM. The compound further registered a Retention_time in data set [2] of 6 min.
For `CC[C@H](C)[C@H](NC(=O)[C@H](CCCNC(=N)N)NC(=O)[C@@H](NC(=O)[C@@H](N)Cc1ccccc1)[C@@H](C)CC)C(=O)N[C@@H](CCCNC(=N)N)C(=O)N1CCC[C@H]1C(=O)N[C@@H](CCCNC(=N)N)C(=O)O` (H-FIRIRPR-OH) the same measures were 6.96, 110 nM and 9.9 min.
In data set [3], `CC(C)C[C@H](NC(=O)[C@H](CCCCN)NC(=O)[C@@H](N)Cc1ccccc1)C(=O)N[C@@H](CCCCN)C(=O)O` (H-FKLK-OH) gave an IC50 of 350 nM and a pIC50 of 6.46. This compound also returned a Retention_time in data set [2] of 10.8 min.
In data set [1], `CC(C)C[C@H](NC(=O)[C@H](CCCNC(=N)N)NC(=O)[C@H](CC(C)C)NC(=O)[C@@H](N)Cc1ccccc1)C(=O)N[C@@H](CCCNC(=N)N)C(=O)N1CCC[C@H]1C(=O)N[C@@H](CCCNC(=N)N)C(=O)O` (H-FLRLRPR-OH) registered a pIC50 of 7. Also, in data set [1] (read-out: IC50), the IC50 came out at 100 nM. The Retention_time in data set [2] is recorded as 10.8 min.
In data set [3], `CC[C@H](C)[C@H](NC(=O)[C@H](CCCNC(=N)N)NC(=O)[C@H](CCCNC(=N)N)NC(=O)[C@H](CC(C)C)NC(=O)[C@@H](N)Cc1ccccc1)C(=O)O` (H-FLRRI-OH) returned an IC50 of 4800 nM and a pIC50 of 5.32. In data set [2], this compound registered a Retention_time of 9.2 min.
`CC[C@H](C)[C@H](NC(=O)[C@H](CCCNC(=N)N)NC(=O)[C@H](CCCNC(=N)N)NC(=O)[C@H](CC(C)C)NC(=O)[C@@H](N)Cc1ccccc1)C(=O)N[C@@H](CCCNC(=N)N)C(=O)N1CCC[C@H]1C(=O)N[C@@H](CCCCN)C(=O)N[C@@H](CC(C)C)C(=O)O` (H-FLRRIRPKL-OH) had a pIC50 in data set [1] of 5.28. Moreover, in data set [1] (read-out: IC50), the IC50 worked out at 5200 nM. For the same compound, the Retention_time in data set [2] amounted to 11.4 min.
Turning to `CC[C@H](C)[C@H](NC(=O)[C@H](CCCNC(=N)N)NC(=O)[C@@H](N)Cc1ccccc1)C(=O)N[C@@H](CCCNC(=N)N)C(=O)N1CCC[C@H]1C(=O)N[C@@H](CCCCN)C(=O)N[C@@H](CC(C)C)C(=O)N[C@@H](CCCCN)C(=O)O` (H-FRIRPKLK-OH), in data set [1], the pIC50 is recorded as 7.08. The IC50 in data set [1] (read-out: IC50) is 83 nM. This compound also showed a Retention_time in data set [2] of 10.2 min.
With `CCCCC(NC(=O)[C@H](CCCNC(=N)N)NC(=O)C(CCCC)NC(=O)[C@@H](N)Cc1ccccc1)C(=O)N[C@@H](CCCNC(=N)N)C(=O)N1CCC[C@H]1C(=O)N[C@@H](CCCNC(=N)N)C(=O)O` (some centres not stated) (H-F[ξNle]R[ξNle]RPR-OH), in data set [1], the pIC50 came out at 7.06. Further, the IC50 in data set [1] (read-out: IC50) came out at 87 nM.
In data set [3], `CC(C)C[C@H](NC(=O)[C@H](Cc1ccccc1)NC(=O)CN)C(=O)N[C@@H](CCCNC(=N)N)C(=O)O` (H-GFLR-OH) yielded an IC50 of 950 nM and a pIC50 of 6.02. Besides, in data set [2], the Retention_time is reported as 8.7 min.
On to `CC[C@H](C)[C@H](NC(=O)[C@H](CCCNC(=N)N)NC(=O)[C@H](CCCNC(=N)N)NC(=O)[C@H](CC(C)C)NC(=O)[C@H](Cc1ccccc1)NC(=O)CN)C(=O)O` (H-GFLRRI-OH), for which, in data set [3], the IC50 turned out to be 2300 nM and the pIC50 was found to be 5.63. Also, the Retention_time in data set [2] was found to be 10.1 min.
Take `CC[C@H](C)[C@H](NC(=O)[C@H](CCCNC(=N)N)NC(=O)[C@H](CC(C)C)NC(=O)[C@H](Cc1ccccc1)NC(=O)CNC(=O)CN)C(=O)N[C@@H](CCCNC(=N)N)C(=O)N1CCC[C@H]1C(=O)N[C@@H](CCCCN)C(=O)N[C@@H](CC(C)C)C(=O)N[C@@H](CCCCN)C(=O)O` (H-GGFLRIRPKLK-OH): the negative logarithm of the IC50 (pIC50) in data set [1] is recorded as 7.39. The IC50 in data set [1] (read-out: IC50) came to 41 nM.
The compound `CC[C@H](C)[C@H](N)C(=O)N[C@@H](CCCNC(=N)N)C(=O)N1CCC[C@H]1C(=O)N[C@@H](CCCCN)C(=O)N[C@@H](CC(C)C)C(=O)N[C@@H](CCCCN)C(=O)O` (H-IRPKLK-OH) came in with a pIC50 in data set [1] of 7.31. Besides, the IC50 in data set [1] (read-out: IC50) stood at 49 nM. Also, the Retention_time in data set [2] is on record as 6.8 min.
Take `CC[C@H](C)[C@H](NC(=O)[C@H](CCCNC(=N)N)NC(=O)[C@@H]1CCCN1C(=O)[C@H](CCCCN)NC(=O)[C@H](CC(C)C)NC(=O)[C@@H](N)CCCCN)C(=O)O` (H-KLKPRI-OH): the pIC50 in data set [1] is 5.2. The IC50 in data set [1] (read-out: IC50) turned out to be 6300 nM. In data set [2], this compound showed a Retention_time of 9.9 min.
The compound `CC[C@H](C)[C@H](NC(=O)[C@H](CCCNC(=N)N)NC(=O)[C@@H]1CCCN1C(=O)[C@H](CCCCN)NC(=O)[C@H](CC(C)C)NC(=O)[C@@H](N)CCCCN)C(=O)N[C@@H](CCCNC(=N)N)C(=O)N[C@@H](CC(C)C)C(=O)N[C@@H](Cc1ccccc1)C(=O)NCC(=O)NCC(=O)O` (H-KLKPRIRLFGG-OH) came in with a negative logarithm of the IC50 (pIC50) in data set [1] of 6.82. Further, the IC50 in data set [1] (read-out: IC50) was 150 nM. Besides, the Retention_time in data set [2] is reported as 12.1 min.
Turning to `CC[C@H](C)[C@H](NC(=O)[C@H](CCCNC(=N)N)NC(=O)[C@@H]1CCCN1C(=O)[C@H](CCCCN)NC(=O)[C@H](CC(C)C)NC(=O)[C@@H](N)CCCCN)C(=O)N[C@@H](CCCNC(=N)N)C(=O)N[C@@H](CCCNC(=N)N)C(=O)N[C@@H](CC(C)C)C(=O)N[C@@H](Cc1ccccc1)C(=O)NCC(=O)NCC(=O)O` (H-KLKPRIRRLFGG-OH), the pIC50 in data set [1] amounted to 7.11. The IC50 in data set [1] (read-out: IC50) was found to be 78 nM. For the same compound, the Retention_time in data set [2] is 11.6 min.
The like results for `CC[C@H](C)[C@H](NC(=O)[C@H](CCCNC(=N)N)NC(=O)[C@@H]1CCCN1C(=O)[C@@H](N)CCCCN)C(=O)N[C@@H](CCCNC(=N)N)C(=O)N[C@@H](CC(C)C)C(=O)O` (H-KPRIRL-OH) were, in that order, 6.03, 930 nM and 9.9 min.
In data set [1], `CC[C@H](C)[C@H](NC(=O)[C@H](CCCNC(=N)N)NC(=O)[C@@H]1CCCN1C(=O)[C@@H](N)CCCCN)C(=O)N[C@@H](CCCNC(=N)N)C(=O)N[C@@H](CC(C)C)C(=O)N[C@@H](Cc1ccccc1)C(=O)O` (H-KPRIRLF-OH) displayed a pIC50 of 7.3. In addition, the IC50 in data set [1] (read-out: IC50) is 50 nM. This compound also came in with a Retention_time in data set [2] of 14.5 min.
For the compound `CC[C@H](C)[C@H](NC(=O)[C@H](CCCNC(=N)N)NC(=O)[C@@H]1CCCN1C(=O)[C@H](CCCCN)NC(=O)[C@H](CC(C)C)NC(=O)[C@@H](N)CC(C)C)C(=O)N[C@@H](CCCNC(=N)N)C(=O)N[C@@H](CCCNC(=N)N)C(=O)N[C@@H](CC(C)C)C(=O)N[C@@H](Cc1ccccc1)C(=O)NCC(=O)NCC(=O)O` (H-LLKPRIRRLFGG-OH), the pIC50 in data set [1] is 7.03. The IC50 in data set [1] (read-out: IC50) stood at 93 nM. This compound came in with a Retention_time in data set [2] of 12.6 min.
In data set [1], `CC(C)C[C@H](NC(=O)[C@H](CCCCN)NC(=O)[C@@H]1CCCN1)C(=O)N[C@@H](CCCCN)C(=O)O` (H-PKLK-OH) displayed a pIC50 of 6.68. For the same compound, in data set [1] (read-out: IC50), the IC50 was 210 nM.
In data set [3], `CCCCC(NC(=O)[C@H](CCCCN)NC(=O)[C@@H]1CCCN1)C(=O)N[C@@H](CCCCN)C(=O)O` (some centres not stated) (H-PK[ξNle]K-OH) registered an IC50 of 71 nM and a pIC50 of 7.15. This compound also returned a Retention_time in data set [2] of 7.5 min.
`CC[C@H](C)[C@H](NC(=O)[C@@H](N)CCCNC(=N)N)C(=O)N[C@@H](CCCNC(=N)N)C(=O)N1CCC[C@H]1C(=O)N[C@@H](CCCCN)C(=O)N[C@@H](CC(C)C)C(=O)N[C@@H](CCCCN)C(=O)O` (H-RIRPKLK-OH) showed a pIC50 in data set [1] of 7.19. Further, the IC50 in data set [1] (read-out: IC50) worked out at 65 nM. Also, the Retention_time in data set [2] was 8.3 min.
In data set [3], `CC(C)C[C@H](NC(=O)[C@H](CCCCN)NC(=O)[C@@H](N)Cc1ccc(N)cc1)C(=O)N[C@@H](CCCCN)C(=O)O` (H-[Phe(4-NH2)]KLK-OH) had an IC50 of 450 nM and a pIC50 of 6.35. In addition, the Retention_time in data set [2] was found to be 7.2 min.
On to `CCCC[C@@H](NC(=O)[C@H](N)Cc1ccccc1)C(=O)N[C@H](CCCNC(=N)N)C(=O)N[C@H](CCCC)C(=O)N[C@H](CCCNC(=N)N)C(=O)N1CCC[C@@H]1C(=O)N[C@H](CCCCN)C(=O)O` (H-[dF][dNle][dR][dNle][dR][dP][dK]-OH), for which the pIC50 result in the data set filed under Rattus norvegicus is “inactive”. Besides, the IC50 entry in data set [1] is “Not Active”. The compound also yielded a Retention_time in data set [2] of 11.1 min.
In data set [1], `CCCCC(N)C(=O)N[C@@H](CCCCN)C(=O)N[C@H](C(=O)N[C@@H](CCCCN)C(=O)N1CCC[C@H]1C(=O)N[C@@H](CCCCN)C(=O)O)[C@@H](C)CC` (some centres not stated) (H-[ξNle]KIKPK-OH) yielded a pIC50 of 6.34. The IC50 in data set [1] (read-out: IC50) amounted to 460 nM. Also, the Retention_time in data set [2] came to 7.9 min.
`CCCCC(N)C(=O)N[C@@H](CCCCN)C(=O)N1CCC[C@H]1C(=O)N[C@@H](CCCCN)C(=O)NC(CCCC)C(=O)N[C@@H](CCCCN)C(=O)O` (some centres not stated) (H-[ξNle]KPK[ξNle]K-OH) returned a pIC50 in data set [1] of 7.11. Further, the IC50 in data set [1] (read-out: IC50) is 78 nM.
Turning to `CCCCC(N)C(=O)N[C@@H](CCCCN)C(=O)NC(CCCC)C(=O)N[C@@H](CCCCN)C(=O)O` (some centres not stated) (H-[ξNle]K[ξNle]K-OH), in data set [3], the IC50 was 110 nM and the negative-log IC50 (pIC50) worked out at 6.94. Besides, the Retention_time in data set [2] was 9.9 min.
In data set [1], `CCCCC(N)C(=O)N[C@@H](CCCNC(=N)N)C(=O)N1CCC[C@H]1C(=O)N[C@@H](CCCNC(=N)N)C(=O)NC(CCCC)C(=O)N[C@@H](CCCCN)C(=O)O` (some centres not stated) (H-[ξNle]RPR[ξNle]K-OH) registered a pIC50 of 7.08. Besides, the IC50 in data set [1] (read-out: IC50) worked out at 83 nM. For the same compound, the Retention_time in data set [2] stood at 8.2 min.

Values taken from ChEMBL document CHEMBL3576760, “Modification of amphipathic non-opioid dynorphin A analogues for rat brain bradykinin receptors” (Bioorg Med Chem Lett, 2015).
